Measured values from ChEMBL document CHEMBL6092193, “Identification of furo[2,3-d]pyrimidin-4-ylsulfanyl-1,3,4-thiadiazole derivatives as novel FLT3-ITD inhibitors” (Eur J Med Chem, 2024).
The source made the active and inactive calls. The calls are words filed in the database; no cut-off is given here.

Assays:
MV4-11 [1] = assay: Antiproliferative activity against human MV4-11 cells harboring homozygous FLT3-ITD mutant assessed as inhibition of cell growth incubated for 72 hrs by resazurin dye based fluorescence analysis; type: functional
MV4-11 [2] = assay: Induction of cell cycle arrest in human MV4-11 cells assessed as proportion of cells at G2/M phase at 16 nM incubated for 24 hrs by PI staining based flow cytometry (reference value: 10%); type: functional
MV4-11 [3] = assay: Induction of cell cycle arrest in human MV4-11 cells assessed as proportion of cells at subG1 phase at 80 nM incubated for 24 hrs by PI staining based flow cytometry (reference value: 10.44%); type: functional
HL-60 [4] = assay: Induction of cell cycle arrest in human HL-60 cells assessed as proportion of cells at G2/M phase at 16 nM incubated for 24 hrs by PI staining based flow cytometry (reference value: 14.52%); type: functional
HL-60 [5] = assay: Induction of cell cycle arrest in human HL-60 cells assessed as proportion of cells at G1 phase at 400 nM incubated for 24 hrs by PI staining based flow cytometry (reference value: 49.36%); type: functional
[6] = system: Receptor-type tyrosine-protein kinase FLT3 (Homo sapiens), P36888 [UNDEFINED MUTATION]; assay: Inhibition of FLT3-ITD mutant (unknown origin) expressed in mouse BaF3 cells assessed as inhibition of ERK1/2 phosphorylation at Thr202/Tyr204 residues at 16 to 2000 nM incubated for 2 hrs by immunoblot analysis; type: cell-based; conditions: dose lower […], dose upper 2000.0 nM
K562 = assay: cells; conditions: Homo sapiens, K562, 72 h
Description: Antiproliferative activity against FLT3-independent human K562 cells assessed as inhibition of cell growth incubated for 72 hrs by resazurin dye based fluorescence analysis

BaF3 = assay: cells; conditions: Mus musculus, BaF3, 72 h

Chain of Receptor-type tyrosine-protein kinase FLT3 (Homo sapiens), P36888 [UNDEFINED MUTATION] (P36888 whole entry, looked up, change not shown): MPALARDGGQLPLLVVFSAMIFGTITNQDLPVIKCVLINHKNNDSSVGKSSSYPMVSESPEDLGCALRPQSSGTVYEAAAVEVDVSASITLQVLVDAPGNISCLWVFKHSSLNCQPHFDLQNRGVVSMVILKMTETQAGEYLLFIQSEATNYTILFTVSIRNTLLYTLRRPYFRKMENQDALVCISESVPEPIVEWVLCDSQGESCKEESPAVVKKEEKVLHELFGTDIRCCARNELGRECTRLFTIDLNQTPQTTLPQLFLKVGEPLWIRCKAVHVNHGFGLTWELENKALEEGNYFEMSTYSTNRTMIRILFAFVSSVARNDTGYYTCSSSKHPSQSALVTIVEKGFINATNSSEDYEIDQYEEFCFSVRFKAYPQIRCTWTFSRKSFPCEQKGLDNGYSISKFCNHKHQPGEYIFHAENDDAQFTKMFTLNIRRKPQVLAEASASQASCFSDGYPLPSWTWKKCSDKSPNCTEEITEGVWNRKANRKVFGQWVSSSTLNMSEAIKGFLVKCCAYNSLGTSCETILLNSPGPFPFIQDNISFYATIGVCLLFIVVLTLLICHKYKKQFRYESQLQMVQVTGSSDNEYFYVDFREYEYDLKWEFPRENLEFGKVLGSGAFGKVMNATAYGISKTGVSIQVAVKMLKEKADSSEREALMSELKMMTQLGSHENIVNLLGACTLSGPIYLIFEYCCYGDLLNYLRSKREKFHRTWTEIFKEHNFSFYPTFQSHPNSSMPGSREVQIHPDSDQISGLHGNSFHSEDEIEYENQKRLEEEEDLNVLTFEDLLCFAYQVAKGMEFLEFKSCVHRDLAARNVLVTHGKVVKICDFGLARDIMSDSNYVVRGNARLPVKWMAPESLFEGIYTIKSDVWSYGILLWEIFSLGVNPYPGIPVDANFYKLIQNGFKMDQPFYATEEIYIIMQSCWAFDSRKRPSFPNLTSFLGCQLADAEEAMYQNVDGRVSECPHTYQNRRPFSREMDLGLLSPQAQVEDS

For `COc1ccc(NC(=O)Nc2nnc(Sc3ncnc4oc(-c5ccccc5)cc34)s2)cc1`, the GI50 (MV4-11 [1]) was 105 nM, the Activity (MV4-11 [2]) was 2.63% and the Activity (MV4-11 [3]) was 26.76%. The Activity (HL-60 [4]) was 13.57%, the Activity (HL-60 [5]) was 50.35% and the inhibition [6] was “Active”. For the same compound, the GI50 (K562) was greater than 10000 nM and the GI50 (BaF3) was 54 nM.
